Patent publication US4864023A, “Pyrido(3,2,1-IJ)-1,3,4-benzoxadiazine derivatives” (priority 1988, dated 1989)
Values after ≈ are worked out from the molar mass of the structure shown.

How the values were obtained:
Assay in all cases: in vitro antibacterial activity, standard agar dilution method
Type in all cases: cell-based
[1] = tested on: Bacillus subtilis PCI 219; settings: PCI219, aerobic, read-out: minimum inhibitory concentration (MIC)
[2] = tested on: Staphylococcus aureus FDA 209P JC-1; settings: FDA209P; Staphylococcus aureus FDA 209P JC-1; aerobic; agar dilution; read-out: minimum inhibitory concentration (MIC)
[3] = tested on: Staphylococcus aureus NR 2855; settings: NR2855; Staphylococcus aureus NR 2855; aerobic; agar dilution; read-out: minimum inhibitory concentration (MIC)
[4] = tested on: Staphylococcus aureus Smith; settings: Staphylococcus aureus Smith; aerobic; agar dilution; read-out: minimum inhibitory concentration (MIC)
[5] = tested on: Staphylococcus epidermidis IFO 12993; settings: IFO12993, aerobic, read-out: minimum inhibitory concentration (MIC)
[6] = tested on: Staphylococcus epidermidis NR 2942; settings: NR2942, aerobic, read-out: minimum inhibitory concentration (MIC)
[7] = tested on: Enterococcus faecalis NR 2943; settings: NR2943, aerobic, read-out: minimum inhibitory concentration (MIC)
[8] = tested on: Alcaligenes faecalis IFO 13111; settings: IFO13111, aerobic, read-out: minimum inhibitory concentration (MIC)
[9] = tested on: Citrobacter freundii IFO 12681; settings: IFO12681, aerobic, read-out: minimum inhibitory concentration (MIC)
[10] = tested on: Enterobacter aerogenes NR 2945; settings: Klebsiella aerogenes, NR2945, aerobic, read-out: minimum inhibitory concentration (MIC)
[11] = tested on: Enterobacter cloacae NR 2946; settings: NR2946, aerobic, read-out: minimum inhibitory concentration (MIC)
[12] = tested on: Escherichia coli NIHJ JC-2; settings: NIHJJC2, aerobic, read-out: minimum inhibitory concentration (MIC)
Escherichia coli NR 2630 = settings: NR2630; Escherichia coli NR 2630; aerobic; agar dilution; read-out: minimum inhibitory concentration (MIC)
[13] = tested on: Klebsiella pneumoniae FDA PCI 602; settings: FDAPCI602, aerobic, read-out: minimum inhibitory concentration (MIC)
[14] = tested on: Bordetella bronchiseptica ATCC 4617; settings: ATCC4617, aerobic, read-out: minimum inhibitory concentration (MIC)
[15] = tested on: Proteus rettgeri ATCC 14505; settings: Providencia rettgeri, ATCC14505, aerobic, read-out: minimum inhibitory concentration (MIC)
[16] = tested on: Proteus vulgaris OX19 ATCC 6898; settings: ATCC6898, aerobic, read-out: minimum inhibitory concentration (MIC)
[17] = tested on: Pseudomonas aeruginosa A3; settings: aerobic, read-out: minimum inhibitory concentration (MIC)
[18] = tested on: Pseudomonas aeruginosa NR 2950; settings: NR2950, aerobic, read-out: minimum inhibitory concentration (MIC)
[19] = tested on: Pseudomonas stutzeri IFO 12695; settings: Stutzerimonas stutzeri, IFO12695, aerobic, read-out: minimum inhibitory concentration (MIC)
[20] = tested on: Serratia marcescens IFO 12648; settings: IFO12648, aerobic, read-out: minimum inhibitory concentration (MIC)
[21] = tested on: Salmonella typhimurium IFO 12529; settings: Salmonella enterica, aerobic, read-out: minimum inhibitory concentration (MIC)

SMILES | MIC [1] [µg/mL] | MIC [2] [µg/mL] | MIC [3] [µg/mL] | MIC [4] [µg/mL] | MIC [5] [µg/mL] | MIC [6] [µg/mL] | MIC [7] [µg/mL] | MIC [8] [µg/mL] | MIC [9] [µg/mL] | MIC [10] [µg/mL] | MIC [11] [µg/mL] | MIC [12] [µg/mL] | MIC (Escherichia coli NR 2630) [µg/mL] | MIC [13] [µg/mL] | MIC [14] [µg/mL] | MIC [15] [µg/mL] | MIC [16] [µg/mL] | MIC [17] [µg/mL] | MIC [18] [µg/mL] | MIC [19] [µg/mL] | also measured
CN1COc2c(N3CCN(CCF)CC3)c(F)cc3c(=O)c(C(=O)O)cn1c23 [Example 44] | 0.05 (≈ 0.127 µM) | 0.78 (≈ 1.98 µM) | 0.39 (≈ 0.989 µM) | 0.39 (≈ 0.989 µM) | 0.78 (≈ 1.98 µM) | 0.39 (≈ 0.989 µM) | 12.5 (≈ 31.7 µM) | 1.56 (≈ 3.96 µM) | 0.2 (≈ 0.507 µM) | 0.1 (≈ 0.254 µM) | 0.2 (≈ 0.507 µM) | 0.2 (≈ 0.507 µM) | 0.05 (≈ 0.127 µM) | 0.39 (≈ 0.989 µM) | 0.39 (≈ 0.989 µM) | 1.56 (≈ 3.96 µM) | 0.1 (≈ 0.254 µM) | 0.78 (≈ 1.98 µM) | 6.25 (≈ 15.8 µM) | 0.2 (≈ 0.507 µM) | MIC [20]: 0.39 µg/mL (≈ 0.989 µM); MIC [21]: 0.2 µg/mL (≈ 0.507 µM)
CN1COc2c(N3CCN(CC(=O)O)CC3)c(F)cc3c(=O)c(C(=O)O)cn1c23 [Example 45] | 0.39 (≈ 0.96 µM) | 1.56 (≈ 3.84 µM) | 3.13 (≈ 7.7 µM) | 0.78 (≈ 1.92 µM) | 3.13 (≈ 7.7 µM) | 3.13 (≈ 7.7 µM) | 50 (≈ 123 µM) | 12.5 (≈ 30.8 µM) | 0.1 (≈ 0.246 µM) | 0.05 (≈ 0.123 µM) | 0.2 (≈ 0.492 µM) | 0.2 (≈ 0.492 µM) | 0.1 (≈ 0.246 µM) | 0.39 (≈ 0.96 µM) | 12.5 (≈ 30.8 µM) | 0.78 (≈ 1.92 µM) | 0.1 (≈ 0.246 µM) | 0.78 (≈ 1.92 µM) | 6.25 (≈ 15.4 µM) | 0.05 (≈ 0.123 µM) | MIC [20]: 0.78 µg/mL (≈ 1.92 µM); MIC [21]: 0.1 µg/mL (≈ 0.246 µM)
CNC1CCN(c2c(F)cc3c(=O)c(C(=O)O)cn4c3c2OCN4C)C1 (centres unmarked) [Example 31] | 0.05 (≈ 0.138 µM) | 0.39 (≈ 1.08 µM) | 0.78 (≈ 2.15 µM) | 0.2 (≈ 0.552 µM) | 0.39 (≈ 1.08 µM) | 0.39 (≈ 1.08 µM) | 12.5 (≈ 34.5 µM) | 3.13 (≈ 8.64 µM) | 0.05 (≈ 0.138 µM) | 0.025 (≈ 0.069 µM) | 0.05 (≈ 0.138 µM) | 0.05 (≈ 0.138 µM) | 0.025 (≈ 0.069 µM) | 0.2 (≈ 0.552 µM) | 3.13 (≈ 8.64 µM) | 0.39 (≈ 1.08 µM) | 0.025 (≈ 0.069 µM) | 0.2 (≈ 0.552 µM) | 1.56 (≈ 4.31 µM) | 0.025 (≈ 0.069 µM) | MIC [20]: 0.2 µg/mL (≈ 0.552 µM); MIC [21]: 0.025 µg/mL (≈ 0.069 µM)
CN1CCN(c2c(F)cc3c(=O)c(C(=O)O)cn4c3c2OCN4CCF)CC1 [Example 69, 9-fluoro-3-(2-fluoroethyl)-10-(4-methyl-1-piperazinyl)-7-oxo-2,3-dihydro-7H-pyrido[3,2,1-ij]-1,3,4-benzoxadiazine-6-carboxylic acid] | 0.2 (≈ 0.507 µM) | 1.56 (≈ 3.96 µM) | 1.56 (≈ 3.96 µM) | 0.78 (≈ 1.98 µM) | 1.56 (≈ 3.96 µM) | 1.56 (≈ 3.96 µM) | 12.5 (≈ 31.7 µM) | 3.13 (≈ 7.94 µM) | 0.1 (≈ 0.254 µM) | 0.1 (≈ 0.254 µM) | 0.2 (≈ 0.507 µM) | 0.2 (≈ 0.507 µM) | 0.1 (≈ 0.254 µM) | 0.39 (≈ 0.989 µM) | 0.78 (≈ 1.98 µM) | 0.78 (≈ 1.98 µM) | 0.05 (≈ 0.127 µM) | 0.78 (≈ 1.98 µM) | 6.25 (≈ 15.8 µM) | 0.2 (≈ 0.507 µM) | MIC [20]: 0.2 µg/mL (≈ 0.507 µM); MIC [21]: 0.1 µg/mL (≈ 0.254 µM)
CN1COc2c(N3CCOCC3)c(F)cc3c(=O)c(C(=O)O)cn1c23 [Example 9, 9-Fluoro-3-methyl-10-morpholino-7-oxo-2,3-dihydro-7H-pyrido[3,2,1-ij]-1,3,4-benzoxadiazine-6-carboxylic acid] | ≤ 0.0008 | 0.2 (≈ 0.573 µM) | 0.0065 (≈ 0.0186 µM) | 0.0033 (≈ 0.00945 µM) | 0.2 (≈ 0.573 µM) | 0.0065 (≈ 0.0186 µM) | 12.5 (≈ 35.8 µM) | 6.25 (≈ 17.9 µM) | 0.39 (≈ 1.12 µM) | 0.0065 (≈ 0.0186 µM) | 0.013 (≈ 0.0372 µM) | 0.1 (≈ 0.286 µM) | ≤ 0.0008 | 3.13 (≈ 8.96 µM) | 1.56 (≈ 4.47 µM) | 1.56 (≈ 4.47 µM) | ≤ 0.0008 | 6.25 (≈ 17.9 µM) | 12.5 (≈ 35.8 µM) | ≤ 0.0008 | MIC [20]: 0.78 µg/mL (≈ 2.23 µM); MIC [21]: 0.0033 µg/mL (≈ 0.00945 µM)
